How the values were obtained:
[1] = Solution mineralization approach, 25 rounds, colour measured with Minolta Chroma Meter CR-200; conditions: unstained sectioned human tooth, peptide 10 minutes, calcium/phosphate ions 2 hours 37° C.
Description: The root site of an extracted human tooth was removed and the crown portion of the tooth was sectioned vertically into half. A thin layer of enamel was removed from one half of the sectioned tooth such that the dentin layer is exposed without completely removing the enamel on the tooth. This allowed imaging of the enamel surfaces after the mineralization experiment without the problem of surface reflection, and provides a more parallel surface from which to compare the whiteness results. The sectioned tooth was fixed onto a glass slide with epoxy. Initial color measurements of each of the four sides of the sectioned tooth was obtained using a Minolta Chroma Meter CR-200 (Konica Minolta, Tokyo, Japan), according to manufacturer instructions, using a white background and a black background. The sectioned tooth was incubated in a mineralization polypeptide solution for 10 minutes at 37° C. and then in a solution with calcium ions and phosphate ions for 2 hours at 37° C. Color measurements of each of the four sides of the sample were taken as described initially. The sectioned was rinsed with deionized water and the remineralization process (incubation in polypeptide solution, incubation in solution of ion sources, and rinsing with deionized water) was repeated for a total of 25 rounds. The mineralization polypeptide was SYENSHSQAINVDRT (shADP5; SEQ ID NO:16).

[2] = In vitro re-mineralization of tea-stained human tooth with peptide solution; line profile analysis (Mean Pixel Intensity, ImageJ)
Method: A caries-free human tooth was sterilized in 1% bleach solution for 24 hours then removed and vigorously rinsed with deionized water. The root site was removed and the crown sectioned vertically using a diamond blade. Pictures were taken with a camera attached to an optical microscope.
The exposed dentine sites were etched with 35% phosphoric acid (Ultraetch™) for 60 seconds (to facilitate the stain intake). The etching gel was removed by rinsing the sample with distilled water for 3 minutes. The staining solution was prepared by boiling 2 g of tea in 100 ml of deionized water for 5 minutes, which was then cooled down to room temperature and filtered. The tooth was soaked in the staining solution and incubated at 37° C. at 150 rpm for 24 hours. The tooth was then removed from the staining solution and sonicated for 30 seconds in deionized water (sonic bath) to remove the excess amount of tea particles attached to tooth extrinsically. The sectioned tooth was cut vertically in half again to form two quarter sections of the tooth. FIGS. 2(a) to 2(g) show various sections of the tooth after the staining. […] Figures (b), (c) and (d) show different views of the left quarter of the tooth that was sectioned from the tooth. Figures (e), (f) and (g) show different views of the right quarter of the tooth that was sectioned from the tooth. As can be observed from FIGS. 2(a) to 2(g), brown stains from the staining solution were formed on the surface and below the surface of the tooth. The left quarter of the tooth was stored in 24 mM Tris Buffer (pH: 7.4) for control and the right quarter of the tooth (test tooth) was used for in vitro re-mineralization. The test tooth was submerged into peptide solution (600 μl) containing a mineralization polypeptide in a 48 well plate and incubated for 10 minutes at 37° C. After incubation, the tooth was removed and placed into to a new well. A mineralization solution of 400 μl of 9.6 mM CaCl2 and 400 μl of 5.6 mM KH2PO4 was added and quickly mixed by pipetting the solution up and down. […]

[3] = Solution mineralization approach on tetracycline-stained human teeth; line profile analysis (Mean Pixel Intensity); conditions: for Mean Pixel Intensity: shADP5 0.8 mM, tetracycline-stained
Description: Human teeth, donated by the University of Washington School of Dentistry (Seattle, Wash., USA), were selected for their clean, smooth surfaces. The teeth were sterilized in bleach, cut on a diamond blade to remove the root, and halved. A thin layer of the enamel surface was then cut on one of the halves parallel to the previous cut, such that the dentin layer could be seen without completely removing the enamel on the tooth. This allowed imaging of the enamel surfaces after the mineralization experiment without the problem of surface reflection encountered in previous experiments, in addition to a more parallel surface from which to compare the brightness or whiteness results. The cut enamel side of the tooth sample was then sonicated in DI water and polished on diamond slurry smooth out the surface for imaging. The sample was then cut into quarters, with the lower half selected for a tetracycline experiment because of the even distribution of dentin coloring in the lower quarters of the tooth sample. The samples were then stained in 10 mg/mL tetracycline solution for five days.
During mineralization, using a 96-well plate, one of the stained halves was stored in 1200 μL Tris (24 mM) as a negative control, and the experimental sample was incubated in 150 μL shADP5 (0.8 mM) at 37° C. for 10 minutes. The experimental sample was then rinsed of excess peptide with deionized water and then stored in 600 μL CaCl2 (9.6 mM), to which 600 μL monobasic KH2PO4 (5.76 mM) was added. The well plate containing both the control and experimental samples was then stored at 37° C. for about 24 hours for mineralization to occur on the treated stained tooth sample.
[…] After 27 rounds of mineralization on the experimental sample, the tooth was inspected for changes in brightness qualitatively. The stained negative control was polished to expose the original enamel stain in order to compare the whitening effect of the peptide mineralization.

[4] = In vitro re-mineralization of tea-stained rat tooth with peptide solution; conditions: peptide 10 min 37° C., then CaCl2/KH2PO4 16 hours 37° C., control in Tris buffer
Method: Rat teeth (molars) were obtained from sacrificed rats (for example, Sprague Dawley rats, age 3 weeks or older) from animal facility, collected, and stored in 100% alcohol. Prior to the re-mineralization experiments the teeth were stored in 1% bleach for 24 hours. […] The teeth were then dried in an incubator in air at 37° C. for 3-6 hours to produce dry surface. The root site and section the crown were removed vertically using a diamond blade. Pictures were taken with camera attached to optical microscope. Exposed dentine sites in the one half of the sectioned tooth were etched with 35% phosphoric acid (Ultraetch™) for 60 seconds (to facilitate the stain intake). The etching gel was removed by rinsing the sample with distilled water for 3 minutes. The staining solution was prepared by boiling 2 g of tea in 100 ml of deionized water for 5 minutes, and then cooled down to room temperature and filtered. The tooth sample was soaked in the staining solution and incubated at 37° C. at 150 rpm for 24 hours. The tooth was removed from the staining solution and sonicated for 30 seconds in deionized water (sonic bath) to remove the excess amount of tea particles attached to tooth extrinsically. The one half of the sectioned tooth was cut vertically into half again to form two quarter sections of the tooth. A second set of pictures were taken with camera attached to optical microscope. […]

[5] = Kinetic profile of mineral formation; conditions: fast = immediate mineral formation; slow = about 5 minutes to about 1 hour
Method: Fast kinetics refers to fast mineral formation, such as immediate mineral formation, while slow mineral formation refers to mineral formation over a period of time, such as about 5 minutes to about 1 hour. In some embodiments, a first biomineralizing peptide having faster kinetics can be used in combination with a second biomineralizing peptide having slower kinetics.

SYENSHSQAINVDRT [shADP5, shortened amelogenin derived polypeptide ADP5]
whiteness of the tooth enamel [1]: whiteness of the tooth enamel improved with each round of remineralization | Mean Pixel Intensity ([2]; Whitened (stained and remineralized), 0 = completely black, 100 = completely white, Bar C in FIG. 4): 96.21 ± 2.39 | whiteness versus original tooth and stained tooth ([2]; after staining and remineralization, from MPI in FIG. 4): improved whiteness over the original tooth and the stained tooth | colour of treated tooth quarter versus control ([2]; tea-stained human tooth, peptide 10 minutes 37° C., then CaCl2/KH2PO4 16 hours 37° C., control in Tris buffer): lighter in color than the left quarter (control) | Mean Pixel Intensity ([3]; After 3 rounds of remineralization, Bar B in FIG. 6): 69.47 ± 2.96 | Mean Pixel Intensity ([3]; After 4 rounds of remineralization, Bar C in FIG. 6): 70.11 ± 2.92 | Mean Pixel Intensity ([3]; After 5 rounds of remineralization, Bar D in FIG. 6): 70.79 ± 1.96 | Mean Pixel Intensity ([3]; After 7 rounds of remineralization, Bar E in FIG. 6): 74.47 ± 2.13 | whiteness of the stained tooth ([3]; repeated rounds of remineralization (3 to 7 rounds)): whiteness of the stained tooth improves with repeated rounds of remineralization | colour of treated tooth quarter versus control [4]: lighter in color than the control

(PGYIN(L/F)SYE(K/N)SHSQAIN(T/V)DRTA)1-10 [ADP5]
kinetic profile (mineral formation) [5]: fast kinetic profile

(HPP(S/T)HTLQPHHH(L/I)PVVPAQQPV (A/I)PQQPMMPVPG(H/Q)HSMTP(T/I)QH)1-10 [ADP7]
kinetic profile (mineral formation) [5]: slow kinetic profile

— patent US20180200172A1, “REAGENTS AND METHODS FOR WHITENING TEETH” (UNIVERSITY OF WASHINGTON THROUGH ITS CENTER FOR …, priority 2015, published 2018)
